Source: US20250092016A1, “COMPOUNDS AND COMPOSITIONS FOR THE TREATMENT OF CORONAVIRAL RELATED DISEASES” (priority 2021, published 2025)

Target: SARS-CoV-2 main protease (M^pro) (Severe acute respiratory syndrome coronavirus 2, UniProt P0DTD1)
Assay: Rapid-Fire MS Biochemical Assay measuring Mpro activity (5 nM Mpro)
Conditions: Table 1B, Mpro inhibition, 5 μM substrate peptide, 120 min, read-out: Rapid-Fire Assay IC50

N#C[C@@H]1CN(c2ccc(OC(F)F)cc2F)C(=O)N1c1cncc2ccccc12 (single isomer, unassigned) [Compound 83b]
IC50: > 1 µM

CC(C)(O)c1ccc(N2C[C@H](C#N)N(c3cncc4ccccc34)C2=O)cc1 (single isomer, unassigned) [Compound 84a]
IC50: 0.02 to 0.2 µM

CC(C)(O)c1ccc(N2C[C@@H](C#N)N(c3cncc4ccccc34)C2=O)cc1 (single isomer, unassigned) [Compound 84b]
IC50: > 1 µM

CS(=O)(=O)c1ccc2cncc(N3C(=O)N(c4ccc(F)c(F)c4)C[C@@H]3C#N)c2c1 (single isomer, unassigned) [Compound 85a]
IC50: < 0.02 µM

CS(=O)(=O)c1ccc2cncc(N3C(=O)N(c4ccc(F)c(F)c4)C[C@H]3C#N)c2c1 (single isomer, unassigned) [Compound 85b]
IC50: > 1 µM

CS(=O)(=O)c1ccc2cncc(N3C(=O)N(c4cc(F)cc(F)c4)C[C@@H]3C#N)c2c1 (single isomer, unassigned) [Compound 86a]
IC50: 0.02 to 0.2 µM

CS(=O)(=O)c1ccc2cncc(N3C(=O)N(c4cc(F)cc(F)c4)C[C@H]3C#N)c2c1 (single isomer, unassigned) [Compound 86b]
IC50: > 1 µM

N#C[C@H]1CN(c2ccc(F)c(Cl)c2)C(=O)N1c1cncc2ccccc12 (single isomer, unassigned) [Compound 87a]
IC50: < 0.02 µM

N#C[C@@H]1CN(c2ccc(F)c(Cl)c2)C(=O)N1c1cncc2ccccc12 (single isomer, unassigned) [Compound 87b]
IC50: > 1 µM

Cc1ncc(C(F)(F)F)cc1N1C[C@H](C#N)N(c2cncc3ccccc23)C1=O (single isomer, unassigned) [Compound 88a]
IC50: < 0.02 µM

Cc1ncc(C(F)(F)F)cc1N1C[C@@H](C#N)N(c2cncc3ccccc23)C1=O (single isomer, unassigned) [Compound 88b]
IC50: > 1 µM

N#C[C@H]1CN(c2cccc(OC(F)F)c2)C(=O)N1c1cncc2ccccc12 (single isomer, unassigned) [Compound 89a]
IC50: < 0.02 µM

N#C[C@@H]1CN(c2cccc(OC(F)F)c2)C(=O)N1c1cncc2ccccc12 (single isomer, unassigned) [Compound 89b]
IC50: > 1 µM

N#Cc1ccc(C(F)(F)F)cc1N1C[C@H](C#N)N(c2cncc3ccccc23)C1=O (single isomer, unassigned) [Compound 90a]
IC50: < 0.02 µM

N#Cc1ccc(C(F)(F)F)cc1N1C[C@@H](C#N)N(c2cncc3ccccc23)C1=O (single isomer, unassigned) [Compound 90b]
IC50: > 1 µM

N#C[C@H]1CN(c2ccc(OC(F)(F)F)cc2)C(=O)N1c1cncc2ccccc12 (single isomer, unassigned) [Compound 91a]
IC50: < 0.02 µM

N#C[C@@H]1CN(c2ccc(OC(F)(F)F)cc2)C(=O)N1c1cncc2ccccc12 (single isomer, unassigned) [Compound 91b]
IC50: > 1 µM

N#C[C@H]1CN(c2cccc(OC(F)(F)F)c2)C(=O)N1c1cncc2ccccc12 (single isomer, unassigned) [Compound 92a]
IC50: < 0.02 µM

N#C[C@@H]1CN(c2cccc(OC(F)(F)F)c2)C(=O)N1c1cncc2ccccc12 (single isomer, unassigned) [Compound 92b]
IC50: 0.2 to 1 µM

N#C[C@H]1CN(c2cnc(C(F)(F)F)nc2)C(=O)N1c1cncc2ccccc12 (single isomer, unassigned) [Compound 93a]
IC50: < 0.02 µM

N#C[C@@H]1CN(c2cnc(C(F)(F)F)nc2)C(=O)N1c1cncc2ccccc12 (single isomer, unassigned) [Compound 93b]
IC50: > 1 µM

CC(C)c1ccc(N2C[C@H](C#N)N(c3cncc4ccccc34)C2=O)cn1 (single isomer, unassigned) [Compound 94a]
IC50: < 0.02 µM

CC(C)c1ccc(N2C[C@@H](C#N)N(c3cncc4ccccc34)C2=O)cn1 (single isomer, unassigned) [Compound 94b]
IC50: > 1 µM

COc1nc(C(F)(F)F)ccc1N1C[C@H](C#N)N(c2cncc3ccccc23)C1=O (single isomer, unassigned) [Compound 95a]
IC50: < 0.02 µM

COc1nc(C(F)(F)F)ccc1N1C[C@@H](C#N)N(c2cncc3ccccc23)C1=O (single isomer, unassigned) [Compound 95b]
IC50: > 1 µM

Cn1c(C(F)(F)F)ccc(N2C[C@H](C#N)N(c3cncc4ccccc34)C2=O)c1=O (single isomer, unassigned) [Compound 96a]
IC50: 0.02 to 0.2 µM

Cn1c(C(F)(F)F)ccc(N2C[C@@H](C#N)N(c3cncc4ccccc34)C2=O)c1=O (single isomer, unassigned) [Compound 96b]
IC50: > 1 µM

N#C[C@H]1CN(c2ccc(C(F)(F)F)cn2)C(=O)N1c1cncc2ccccc12 (single isomer, unassigned) [Compound 97a]
IC50: < 0.02 µM

N#C[C@@H]1CN(c2ccc(C(F)(F)F)cn2)C(=O)N1c1cncc2ccccc12 (single isomer, unassigned) [Compound 97b]
IC50: > 1 µM

Cc1cc(N2C[C@H](C#N)N(c3cncc4ccccc34)C2=O)cnc1C (single isomer, unassigned) [Compound 98a]
IC50: < 0.02 µM

Cc1cc(N2C[C@@H](C#N)N(c3cncc4ccccc34)C2=O)cnc1C (single isomer, unassigned) [Compound 98b]
IC50: > 1 µM

N#C[C@H]1CN(c2ccc(C(F)(F)F)cc2)C(=O)N1c1cncc2ccccc12 (single isomer, unassigned) [Compound 99a]
IC50: < 0.02 µM

N#C[C@@H]1CN(c2ccc(C(F)(F)F)cc2)C(=O)N1c1cncc2ccccc12 (single isomer, unassigned) [Compound 99b]
IC50: 0.2 to 1 µM

COc1ncc(C(F)(F)F)cc1N1C[C@H](C#N)N(c2cncc3ccccc23)C1=O (single isomer, unassigned) [Compound 100a]
IC50: < 0.02 µM

COc1ncc(C(F)(F)F)cc1N1C[C@@H](C#N)N(c2cncc3ccccc23)C1=O (single isomer, unassigned) [Compound 100b]
IC50: 0.2 to 1 µM

Cc1ccc(OC(F)F)cc1N1C[C@H](C#N)N(c2cncc3ccccc23)C1=O (single isomer, unassigned) [Compound 101a]
IC50: < 0.02 µM

Cc1ccc(OC(F)F)cc1N1C[C@@H](C#N)N(c2cncc3ccccc23)C1=O (single isomer, unassigned) [Compound 101b]
IC50: > 1 µM

Cc1cc(N2C[C@H](C#N)N(c3cncc4ccccc34)C2=O)cc(C)n1 (single isomer, unassigned) [Compound 102a]
IC50: < 0.02 µM

Cc1cc(N2C[C@@H](C#N)N(c3cncc4ccccc34)C2=O)cc(C)n1 (single isomer, unassigned) [Compound 102b]
IC50: 0.2 to 1 µM

COc1cc(Cl)ccc1N1C[C@H](C#N)N(c2cncc3ccccc23)C1=O (single isomer, unassigned) [Compound 103a]
IC50: < 0.02 µM

COc1cc(Cl)ccc1N1C[C@@H](C#N)N(c2cncc3ccccc23)C1=O (single isomer, unassigned) [Compound 103b]
IC50: > 1 µM

N#C[C@H]1CN(c2cncc(C(F)(F)F)c2)C(=O)N1c1cncc2ccccc12 (single isomer, unassigned) [Compound 104a]
IC50: < 0.02 µM

N#C[C@@H]1CN(c2cncc(C(F)(F)F)c2)C(=O)N1c1cncc2ccccc12 (single isomer, unassigned) [Compound 104b]
IC50: > 1 µM

COc1ccc(F)cc1N1C[C@H](C#N)N(c2cncc3ccccc23)C1=O (single isomer, unassigned) [Compound 105a]
IC50: < 0.02 µM

COc1ccc(F)cc1N1C[C@@H](C#N)N(c2cncc3ccccc23)C1=O (single isomer, unassigned) [Compound 105b]
IC50: > 1 µM

N#C[C@H]1CN(c2cccc(C(F)(F)F)c2)C(=O)N1c1cncc2ccccc12 (single isomer, unassigned) [Compound 106a]
IC50: < 0.02 µM

COc1cc(C(F)(F)F)ncc1N1C[C@H](C#N)N(c2cncc3ccccc23)C1=O (single isomer, unassigned) [Compound 107a]
IC50: 0.02 to 0.2 µM

COc1cc(C(F)(F)F)ncc1N1C[C@@H](C#N)N(c2cncc3ccccc23)C1=O (single isomer, unassigned) [Compound 107b]
IC50: > 1 µM

N#C[C@H]1CN(c2ccc(C(F)F)cc2)C(=O)N1c1cncc2ccccc12 (single isomer, unassigned) [Compound 108a]
IC50: < 0.02 µM

N#C[C@@H]1CN(c2ccc(C(F)F)cc2)C(=O)N1c1cncc2ccccc12 (single isomer, unassigned) [Compound 108b]
IC50: > 1 µM

N#C[C@H]1CN(c2cc(F)ccc2F)C(=O)N1c1cncc2ccccc12 (single isomer, unassigned) [Compound 109a]
IC50: < 0.02 µM

N#C[C@@H]1CN(c2cc(F)ccc2F)C(=O)N1c1cncc2ccccc12 (single isomer, unassigned) [Compound 109b]
IC50: > 1 µM

N#C[C@H]1CN(c2cc(F)cc(F)c2)C(=O)N1c1cncc2ccccc12 (single isomer, unassigned) [Compound 110a]
IC50: < 0.02 µM

N#C[C@@H]1CN(c2cc(F)cc(F)c2)C(=O)N1c1cncc2ccccc12 (single isomer, unassigned) [Compound 110b]
IC50: 0.2 to 1 µM

N#C[C@H]1CN(c2cccc(Cl)n2)C(=O)N1c1cncc2ccccc12 (single isomer, unassigned) [Compound 111a]
IC50: < 0.02 µM

N#C[C@@H]1CN(c2cccc(Cl)n2)C(=O)N1c1cncc2ccccc12 (single isomer, unassigned) [Compound 111b]
IC50: 0.2 to 1 µM

COc1ccc(N2C[C@H](C#N)N(c3cncc4ccccc34)C2=O)cn1 (single isomer, unassigned) [Compound 112a]
IC50: < 0.02 µM

COc1ccc(N2C[C@@H](C#N)N(c3cncc4ccccc34)C2=O)cn1 (single isomer, unassigned) [Compound 112b]
IC50: > 1 µM

Cc1ccc(Cl)cc1N1C[C@H](C#N)N(c2cncc3ccccc23)C1=O (single isomer, unassigned) [Compound 114a]
IC50: < 0.02 µM

Cc1ccc(Cl)cc1N1C[C@@H](C#N)N(c2cncc3ccccc23)C1=O (single isomer, unassigned) [Compound 114b]
IC50: > 1 µM
